US12077503B2, “Substituted cyclic amides and their use as herbicides” (FMC CORPORATION, priority 2015, dated 2024)
Read-outs that look alike come from different tables or passages of the source.

Legend:
[1] = test system: giant foxtail (Setaria faberii); assay: Test A postemergence; assay type: in vivo; details: Setaria faberi, post-emergence, 240 h; for pest or weed control at 125 g/ha: 125 g ai/ha; for pest or weed control at 500 g/ha: 500 g ai/ha
How it was run: (§1)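 Treatment is preemergence as a directed soil spray after planting, or postemergence at the one- to two-leaf stage, with test chemical in a non-phytotoxic solvent mixture plus surfactant. Plants stay in the greenhouse about 10 d before visual injury scoring on a 0 to 100 scale versus untreated controls.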

[2] = test system: wheat (Triticum aestivum); assay: Test A postemergence; assay type: in vivo; details: Triticum aestivum, post-emergence, 240 h; for plant injury at 125 g/ha: 125 g ai/ha; for plant injury at 500 g/ha: 500 g ai/ha, 0 to 100 scale, 0 is no effect, 100 is complete control
How it was run: as §1

[3] = test system: barnyardgrass (Echinochloa crus-galli); assay: Test A postemergence; assay type: in vivo; details: Echinochloa crus-galli, post-emergence, 240 h; for pest or weed control at 125 g/ha: 125 g ai/ha; for pest or weed control at 500 g/ha: 500 g ai/ha
How it was run: as §1

[4] = test system: Galium (catchweed bedstraw, Galium aparine); assay: Test A postemergence; assay type: in vivo; details: Galium, post-emergence, 240 h; for pest or weed control at 125 g/ha: 125 g ai/ha; for pest or weed control at 500 g/ha: 500 g ai/ha
How it was run: as §1

Kochia (Kochia scoparia) = assay: Test A postemergence; assay type: in vivo; details: Bassia scoparia, post-emergence, 240 h; for pest or weed control at 125 g/ha: 125 g ai/ha; for pest or weed control at 500 g/ha: 500 g ai/ha
How it was run: as §1

[5] = postemergence, visual injury rating after approximately 10 d, read-out: Foxtail, Giant plant response rating (0 to 100 scale, 0 no effect, 100 complete control)
[6] = postemergence, visual injury rating after approximately 10 d, read-out: Wheat plant response rating (0 to 100 scale, 0 no effect, 100 complete control)
[7] = postemergence, visual injury rating after approximately 10 d, read-out: Barnyardgrass plant response rating (0 to 100 scale, 0 no effect, 100 complete control)
[8] = postemergence, visual injury rating after approximately 10 d, read-out: Galium plant response rating (0 to 100 scale, 0 no effect, 100 complete control)
[9] = postemergence, visual injury rating after approximately 10 d, read-out: Kochia plant response rating (0 to 100 scale, 0 no effect, 100 complete control)
[10] = Postemergence, visual injury after approximately 10 d, 0 to 100 scale where 0 is no effect and 100 is complete control, read-out: Plant response rating, Foxtail, Giant
[11] = Postemergence, visual injury after approximately 10 d, 0 to 100 scale where 0 is no effect and 100 is complete control, read-out: Plant response rating, Wheat
[12] = Postemergence, visual injury after approximately 10 d, 0 to 100 scale where 0 is no effect and 100 is complete control, read-out: Plant response rating, Barnyardgrass
[13] = Postemergence, visual injury after approximately 10 d, 0 to 100 scale where 0 is no effect and 100 is complete control, read-out: Plant response rating, Galium
[14] = Postemergence, visual injury after approximately 10 d, 0 to 100 scale where 0 is no effect and 100 is complete control, read-out: Plant response rating, Kochia
[15] = postemergence, 0 to 100 scale, 0 is no effect, 100 is complete control, read-out: Foxtail, Giant plant response rating
[16] = postemergence, read-out: Wheat plant response rating
[17] = postemergence, 0 to 100 scale, 0 is no effect, 100 is complete control, read-out: Barnyardgrass plant response rating
[18] = postemergence, 0 to 100 scale, 0 is no effect, 100 is complete control, read-out: Galium plant response rating
[19] = postemergence, 0 to 100 scale, 0 is no effect, 100 is complete control, read-out: Kochia plant response rating
[20] = postemergence, visual injury on 0 to 100 scale (0 no effect, 100 complete control), approx. 10 d, read-out: Foxtail, Giant plant response rating
[21] = postemergence, visual injury on 0 to 100 scale (0 no effect, 100 complete control), approx. 10 d, read-out: Wheat plant response rating
[22] = postemergence, visual injury on 0 to 100 scale (0 no effect, 100 complete control), approx. 10 d, read-out: Barnyardgrass plant response rating
[23] = postemergence, visual injury on 0 to 100 scale (0 no effect, 100 complete control), approx. 10 d, read-out: Galium plant response rating
[24] = postemergence, visual injury on 0 to 100 scale (0 no effect, 100 complete control), approx. 10 d, read-out: Kochia plant response rating
[25] = postemergence, visual injury, 0 to 100 scale (0 no effect, 100 complete control), approx. 10 d, read-out: Plant response rating, Foxtail, Giant
[26] = postemergence, visual injury, 0 to 100 scale (0 no effect, 100 complete control), approx. 10 d, read-out: Plant response rating, Barnyardgrass
[27] = postemergence, visual injury, 0 to 100 scale (0 no effect, 100 complete control), approx. 10 d, read-out: Plant response rating, Galium
[28] = postemergence, visual injury, 0 to 100 scale (0 no effect, 100 complete control), approx. 10 d, read-out: Plant response rating, Kochia

O=C1NC[C@H](c2cncc(C(F)(F)F)c2)[C@H]1C(=O)Nc1ccccc1F [Compound 887]
pest or weed control at 125 g/ha [1, 5]: 70% | plant injury at 125 g/ha [2, 6]: 0% | pest or weed control at 125 g/ha [3, 7]: 80% | pest or weed control at 125 g/ha [4, 8]: 0% | pest or weed control at 125 g/ha (Kochia (Kochia scoparia); [9]): 0% | melting point: 192 to 195 °C

O=C1NCC(c2cccc(I)c2)C1C(=O)Nc1ccccc1F (stereo not shown) [Compound 845]
pest or weed control at 125 g/ha [1, 5]: 90% | plant injury at 125 g/ha [2, 6]: 0% | pest or weed control at 125 g/ha [3, 7]: 80% | pest or weed control at 125 g/ha [4, 8]: 20% | pest or weed control at 125 g/ha (Kochia (Kochia scoparia); [9]): 0% | melting point: 150 to 153 °C

C=CCOc1cccc(C2CN(C)C(=O)C2C(=O)Nc2cccc(F)c2F)c1 (stereo not shown) [Compound 933]
pest or weed control at 125 g/ha [1, 10]: 90% | plant injury at 125 g/ha [2, 11]: 20% | pest or weed control at 125 g/ha [3, 12]: 90% | pest or weed control at 125 g/ha [4, 13]: 50% | pest or weed control at 125 g/ha (Kochia (Kochia scoparia); [14]): 50% | melting point: 94 to 97 °C

O=C1NC[C@H](c2cccc(I)c2)[C@H]1C(=O)Nc1ccccc1F [Compound 1160]
pest or weed control at 125 g/ha ([1]; postemergence, visual injury vs untreated controls after approx. 10 d, 0 = no effect, 100 = complete control, read-out: Foxtail, Giant plant response rating (0 to 100 scale)): 80% | pest or weed control at 500 g/ha [1, 15]: 90% | plant injury at 125 g/ha ([2]; postemergence, visual injury vs untreated controls after approx. 10 d, 0 = no effect, 100 = complete control, read-out: Wheat plant response rating (0 to 100 scale)): 20% | plant injury at 500 g/ha [2, 16]: 50% | pest or weed control at 125 g/ha ([3]; postemergence, visual injury vs untreated controls after approx. 10 d, 0 = no effect, 100 = complete control, read-out: Barnyardgrass plant response rating (0 to 100 scale)): 80% | pest or weed control at 500 g/ha [3, 17]: 90% | pest or weed control at 125 g/ha ([4]; postemergence, visual injury vs untreated controls after approx. 10 d, 0 = no effect, 100 = complete control, read-out: Galium plant response rating (0 to 100 scale)): 0% | pest or weed control at 500 g/ha [4, 18]: 60% | pest or weed control at 125 g/ha (Kochia (Kochia scoparia); postemergence, visual injury vs untreated controls after approx. 10 d, 0 = no effect, 100 = complete control, read-out: Kochia plant response rating (0 to 100 scale)): 0% | pest or weed control at 500 g/ha (Kochia (Kochia scoparia); [19]): 20% | melting point: 161 to 164 °C

CN1CC(c2cccc(C=O)c2)C(C(=O)Nc2ccccc2F)C1=O (stereo not shown) [Compound 844]
pest or weed control at 125 g/ha [1, 5]: 0% | plant injury at 125 g/ha [2, 6]: 0% | pest or weed control at 125 g/ha [3, 7]: 0% | pest or weed control at 125 g/ha [4, 8]: 0% | pest or weed control at 125 g/ha (Kochia (Kochia scoparia); [9]): 0% | melting point: 133 to 136 °C

CN1C[C@H](c2ccc(C(F)(F)F)cc2)[C@@H](C(=O)Nc2cccc(F)c2Br)C1=O [Compound 937]
pest or weed control at 125 g/ha [1, 10]: 90% | plant injury at 125 g/ha [2, 11]: 20% | pest or weed control at 125 g/ha [3, 12]: 70% | pest or weed control at 125 g/ha [4, 13]: 70% | pest or weed control at 125 g/ha (Kochia (Kochia scoparia); [14]): 30% | melting point: 160 to 163 °C

CSc1ccccc1NC(=O)C1C(=O)NCC1C=C(C)C (stereo not shown) [Compound 1055]
pest or weed control at 125 g/ha [1, 20]: 0% | pest or weed control at 500 g/ha [1, 15]: 0% | plant injury at 125 g/ha [2, 21]: 0% | plant injury at 500 g/ha [2, 16]: 0% | pest or weed control at 125 g/ha [3, 22]: 0% | pest or weed control at 500 g/ha [3, 17]: 0% | pest or weed control at 125 g/ha [4, 23]: 0% | pest or weed control at 500 g/ha [4, 18]: 0% | pest or weed control at 125 g/ha (Kochia (Kochia scoparia); [24]): 0% | pest or weed control at 500 g/ha (Kochia (Kochia scoparia); [19]): 0% | melting point: 100 to 104 °C

CN1CC(c2ccccc2OC(F)(F)C(F)F)C(C(=O)Nc2ccccc2F)C1=O (stereo not shown) [Compound 1053]
pest or weed control at 125 g/ha [1, 20]: 0% | pest or weed control at 500 g/ha [1, 25]: 0% | plant injury at 125 g/ha [2, 21]: 0% | pest or weed control at 125 g/ha [3, 22]: 0% | pest or weed control at 500 g/ha [3, 26]: 0% | pest or weed control at 125 g/ha [4, 23]: 0% | pest or weed control at 500 g/ha [4, 27]: 0% | pest or weed control at 125 g/ha (Kochia (Kochia scoparia); [24]): 0% | pest or weed control at 500 g/ha (Kochia (Kochia scoparia); [28]): 0% | melting point: 118 to 121 °C

O=C1NCC(c2ccccc2OC(F)(F)C(F)F)C1C(=O)Nc1cccc(F)c1F (stereo not shown) [Compound 1054]
pest or weed control at 125 g/ha [1, 20]: 0% | pest or weed control at 500 g/ha [1, 25]: 0% | plant injury at 125 g/ha [2, 21]: 0% | pest or weed control at 125 g/ha [3, 22]: 0% | pest or weed control at 500 g/ha [3, 26]: 0% | pest or weed control at 125 g/ha [4, 23]: 0% | pest or weed control at 500 g/ha [4, 27]: 0% | pest or weed control at 125 g/ha (Kochia (Kochia scoparia); [24]): 0% | pest or weed control at 500 g/ha (Kochia (Kochia scoparia); [28]): 0% | melting point: 192 to 196 °C

CC(C)=CC1CNC(=O)C1C(=O)Nc1ccccc1S(C)(=O)=O (stereo not shown) [Compound 1057]
pest or weed control at 125 g/ha [1, 20]: 0% | pest or weed control at 500 g/ha [1, 15]: 0% | plant injury at 125 g/ha [2, 21]: 0% | plant injury at 500 g/ha [2, 16]: 0% | pest or weed control at 125 g/ha [3, 22]: 0% | pest or weed control at 500 g/ha [3, 17]: 0% | pest or weed control at 125 g/ha [4, 23]: 0% | pest or weed control at 500 g/ha [4, 18]: 0% | pest or weed control at 125 g/ha (Kochia (Kochia scoparia); [24]): 0% | pest or weed control at 500 g/ha (Kochia (Kochia scoparia); [19]): 0% | melting point: 159 to 163 °C

CN1CC(c2ccccc2OC(F)(F)C(F)F)C(C(=O)Nc2cccc(F)c2F)C1=O (stereo not shown) [Compound 1056]
pest or weed control at 125 g/ha [1, 20]: 0% | pest or weed control at 500 g/ha [1, 15]: 20% | plant injury at 125 g/ha [2, 21]: 0% | plant injury at 500 g/ha [2, 16]: 0% | pest or weed control at 125 g/ha [3, 22]: 20% | pest or weed control at 500 g/ha [3, 17]: 50% | pest or weed control at 125 g/ha [4, 23]: 0% | pest or weed control at 500 g/ha [4, 18]: 0% | pest or weed control at 125 g/ha (Kochia (Kochia scoparia); [24]): 0% | pest or weed control at 500 g/ha (Kochia (Kochia scoparia); [19]): 0% | melting point: 130 to 134 °C
